In patent US9445590B2, “Fungicidal composition comprising a pyridylethylbenzamide derivative and a compound capable of inhibiting the transport of electrons of the respiratory chain in phytopathogenic fungal organisms” (BAYER INTELLECTUAL PROPERTY GMBH, priority 2004, dated 2016):

Tests used:
Alternaria brassicae [1] = assay: Efficacy against Alternaria brassicae (in vitro), growth on PDA medium; assay type: cell-based; details: radial growth after 14 days
Description: The growth of Alternaria brassicae was followed on PDA medium containing the compounds alone or in mixtures. The PDA medium is prepared by mixing 39 grams of PDA (Merck) in 1 litter of demineralised water. The medium is sterilized by autoclave 15 minutes at 121° C. The compounds are dissolved in acetone and added to the medium before pouring it in Petri dishes. After medium drying, the fungus is inoculated on the medium and allowed to growth at 19° C. The percentage of efficacy is noted after 14 days of growth (measurement of the radial growth) of the fungus in comparison with a control. […]

Sphaerotheca fuliginea = assay: Efficacy against Sphaerotheca fuliginea on gherkin plants (preventive spray); assay type: in vivo; details: Podosphaera fuliginea, 504 h, grading 21 days after contamination
Description: (§1) The active ingredients tested are prepared by potter homogenisation in a mixture of acetone/tween/water. This suspension is then diluted with water to obtain the desired active material concentration.
(§2) Gherkin plants (Vert petit de Paris variety) in starter cups, sown on a 50/50 peat soil-pozzolana substrate and grown at 20° C./23° C., are treated at the 2-leaves stage by spraying with the aqueous suspension described above. Plants, used as controls, are treated with an aqueous solution not containing the active material.
After 24 hours, the plants are contaminated by spraying them with an aqueous suspension of Sphaerotheca fuliginea spores (100 000 spores per ml). The spores are collected from a contaminated plants. The contaminated gherkin plants are incubated at about 20° C./25° C. and at 60/70% relative humidity.
Grading (% of efficacy) is carried out 21 days after the contamination, in comparison with the control plants.

Botrytis cinerea = assay: Efficacy against Botrytis cinerea on gherkin plants (preventive spray); assay type: in vivo; details: grading 5 to 7 days after contamination
Description: as §1
as §2, with “(Petit vert” for “(Vert petit”, “18-20°” for “20° C./23°”, “cotyledon Z11” for “2-leaves”
After 24 hours, the plants are contaminated by depositing drops of an aqueous suspension of Botrytis cinerea spores (150,000 spores per ml) on upper surface of the leaves. The spores are collected from a 15-day-old culture and are suspended in a nutrient solution composed of: • 20 g/L of gelatine • 50 g/L of cane sugar • 2 g/L of NH4NO3 • 1 g/L of KH2PO4
The contaminated gherkin plants are settled for 5/7 days in a climatic room at 15-11° C. (day/night) and at 80% relative humidity. Grading is carried out 5 to 7 days after contamination, in comparison with the control plants.
as §2, with “(Petit vert” for “(Vert petit”, “18-20°” for “20° C./23°”, “cotyledon Z 11” for “2-leaves”
(§3) The formulated compounds are diluted with water to obtain the desired active material concentration.

[2] = system: Erysiphe graminis f. sp. tritici; assay: Efficacy against Erysiphe graminis f. sp. tritici on wheat plants (preventive spray); assay type: in vivo; details: grading 7 to 14 days after contamination
Description: as §1
(§4) Wheat plants (Audace variety) in starter cups, sown on 50/50 peat soil-pozzolana substrate and grown at 12° C., are treated at the 1-leaf stage (10 cm tall) by spraying with the aqueous suspension described above.
(§5) Plants, used as controls, are treated with an aqueous solution not containing the active material.
After 24 hours, the plants are contaminated by dusting them with Erysiphe graminis f. sp. tritici spores, the dusting being carried out using diseased plants.
Grading is carried out 7 to 14 days after the contamination, in comparison with the control plants.
as §3
as §4, with “above. Plants, used as controls, are treated with an aqueous solution not containing the active material.” for “above.”

Alternaria brassicae [3] = assay: Efficacy against Alternaria brassicae on radish plants (preventive spray); assay type: in vivo; details: Example 13, dose 111 ppm, grading 6 to 7 days after contamination
Description: as §3
Radish plants (Pernot variety) in starter cups, sown on a 50/50 peat soil-pozzolana substrate and grown at 18-20° C., are treated at the cotyledon stage by spraying with the aqueous suspension described above.
as §5
After 24 hours, the plants are contaminated by spraying them with an aqueous suspension of Alternaria brassicae spores (40,000 spores per cm^3). The spores are collected from a 12-13-day-old culture.
The contaminated radish plants are incubated for 6-7 days at about 18° C., under a humid atmosphere.
Grading is carried out 6 to 7 days after the contamination, in comparison with the control plants.

Pyrenophora teres = assay: Efficacy against Pyrenophora teres on barley plants (preventive spray); assay type: in vivo; details: 288 h, grading 12 days after contamination
Description: as §1
as §2, with “Barley” for “Gherkin”, “(Express” for “(Vert petit de Paris”, “12°” for “20° C./23°”, “1-leaf” for “2-leaves”, “stage (10 cm tall)” for “stage”
After 24 hours, the plants are contaminated by spraying them with an aqueous suspension of Pyrenophora teres spores (12 000 spores per ml). The spores are collected from a 12-day-old culture. The contaminated barley plants are incubated for 24 hours at about 20° C. and at 100% relative humidity, and then for 12 days at 80% relative humidity.
Grading (% of efficacy) is carried out 12 days after the contamination, in comparison with the control plants.

In the case of `CO/C=C(/C(=O)OC)c1ccccc1Oc1cc(Oc2ccccc2C#N)ncn1` [Azoxystrobin, azoxystrobin], the “% Efficacy” value (Alternaria brassicae [1]; Example 3, dose 0.025 ppm) is reported as 38%, the “% Efficacy” value (Alternaria brassicae [1]; Example 3, dose 0.05 ppm) is reported as 41% and the “% Efficacy” value (Alternaria brassicae [1]; Example 3, dose 0.1 ppm) is reported as 47%. The “% Efficacy” value (Alternaria brassicae [1]; Example 3, dose 0.25 ppm) was 56%, the “% Efficacy” value (Alternaria brassicae [1]; Example 3, dose 0.5 ppm) was 47% and the “% Efficacy” value (Alternaria brassicae [1]; Example 3, dose 1 ppm) was 48%. The “% Efficacy” value (Alternaria brassicae [1]; Example 3, dose 2.5 ppm) was 49%.
In the case of `O=C(Nc1ccccc1-c1ccc(Cl)cc1)c1cccnc1Cl` [Boscalid, boscalid, reference compound], the Emax at 4 ppm (Sphaerotheca fuliginea; Example 11, dose 4 ppm) is reported as 0%, the Emax at 8 ppm (Sphaerotheca fuliginea; Example 11, dose 8 ppm) is reported as 10% and the Emax at 15 ppm (Sphaerotheca fuliginea; Example 11, dose 15 ppm) is reported as 45%.
Work on `CNC(=O)C(=NOC)c1ccccc1Oc1ncnc(Oc2cccc(Cl)c2C)c1F` [Compound A, 2-{2-[6-(3-Chloro-2-methylphenoxy)-5-fluoro-pyrimidin-4-yloxy]-phenyl}2-methoxyimino-N-methylacetamide] yielded an Emax at 37 ppm (Botrytis cinerea; Botrytis cinerea, Example 8, dose 37 ppm) of 0%, an Emax at 111 ppm (Botrytis cinerea; Botrytis cinerea, Example 8, dose 111 ppm) of 0% and an Emax at 333 ppm (Botrytis cinerea; Botrytis cinerea, Example 8, dose 333 ppm) of 0%.
`Cc1nn(C)c(F)c1C(=O)Nc1ccccc1C(C)CC(C)C` (centres unmarked) [Compound B, N-[2-(1,3-dimethyl-butyl)-phenyl]-5-fluoro-1,3-dimethyl-1H-pyrazole-4-carboxamide] was tested, and the Emax at 4 ppm (Botrytis cinerea; Botrytis cinerea, Example 10, dose 4 ppm) was 32%.
`Cn1cc(C(=O)Nc2ccc(F)cc2-c2ccc(Cl)c(Cl)c2)c(C(F)F)n1` [Compound C, N-(3′,4′-dichloro-5-fluorobiphenyl-2-yl)-3-(difluoro-methyl)-1-methyl-1H-pyrazole-4-carboxamide] gave an Emax at 31.2 ppm (Sphaerotheca fuliginea; Example 12, dose 31.2 ppm) of 0% and an Emax at 62.5 ppm (Sphaerotheca fuliginea; Example 12, dose 62.5 ppm) of 0%.
`CC(C)CC(C)c1sccc1NC(=O)c1cn(C)nc1C(F)(F)F` (centres unmarked) [Compound D, N-[2-(1,3-dimethylbutyl)-thiophen-3-yl]1-methyl-3-(trifluoromethyl)-1H-pyrazole-4-carboxamide] was tested, and the Emax at 250 ppm (Botrytis cinerea; Botrytis cinerea, Example 14, dose 250 ppm, formulated compounds) was 60%.
For `CNC(=O)/C(=N/OC)c1ccccc1COc1cc(C)ccc1C` [Dimoxystrobin, dimoxystrobin, reference compound], the “% Efficacy” value ([2]; Example 9, dose 62.5 g/ha, formulated compounds) was 0%.
In the case of `CSC1=N[C@@](C)(c2ccccc2)C(=O)N1Nc1ccccc1` [Fenamidone, fenamidone, reference compound], the Emax at 111 ppm (Alternaria brassicae [3]) is reported as 55%.
With `CO/N=C(/C1=NOCCO1)c1ccccc1Oc1ncnc(Oc2ccccc2Cl)c1F` [Fluoxastrobin, fluoxastrobin, reference compound] the Emax at 15 ppm ([2]; Blumeria graminis, Example 4, dose 15 ppm) was 20%.
For `CO/N=C(/C(=O)OC)c1ccccc1COc1ccccc1C` [Kresoxim-methyl, kresoxim-methyl, reference compound], the Emax at 37 ppm (Botrytis cinerea; Botrytis cinerea, Example 5, dose 37 ppm) was 0%, the Emax at 111 ppm (Botrytis cinerea; Botrytis cinerea, Example 5, dose 111 ppm) was 0% and the Emax at 333 ppm (Botrytis cinerea; Botrytis cinerea, Example 5, dose 333 ppm) was 0%.
With `CO/C=C(/C(=O)OC)c1ccccc1COc1cccc(C(F)(F)F)n1` [Picoxystrobin, picoxystrobin, reference compound] the “% Efficacy” value (Botrytis cinerea; Example 6, dose 37 ppm) was 0%, the “% Efficacy” value (Botrytis cinerea; Example 6, dose 111 ppm) was 35% and the “% Efficacy” value (Botrytis cinerea; Example 6, dose 333 ppm) was 40%.
With `COC(=O)N(OC)c1ccccc1COc1ccn(-c2ccc(Cl)cc2)n1` [Pyraclostrobin, pyraclostrobin, reference compound] the Emax at 37 ppm (Botrytis cinerea; Botrytis cinerea, Example 7, dose 37 ppm) was 0%, the Emax at 111 ppm (Botrytis cinerea; Botrytis cinerea, Example 7, dose 111 ppm) was 0% and the Emax at 333 ppm (Botrytis cinerea; Botrytis cinerea, Example 7, dose 333 ppm) was 0%.
Compound `CON=C(C(=O)OC)c1ccccc1CON=C(C)c1cccc(C(F)(F)F)c1` [Trifloxystrobin, trifloxystrobin] has an Emax at 4 g/ha (Pyrenophora teres; Example 1, dose 4 g/ha) of 50%, an Emax at 8 g/ha (Pyrenophora teres; Example 1, dose 8 g/ha) of 70% and an Emax at 0.025 ppm (Alternaria brassicae [1]; Alternaria brassicae, 336 h, Example 2, dose 0.025 ppm) of 45%. For the same compound, the Emax at 0.05 ppm (Alternaria brassicae [1]; Alternaria brassicae, 336 h, Example 2, dose 0.05 ppm) was 44%, the Emax at 0.1 ppm (Alternaria brassicae [1]; Alternaria brassicae, 336 h, Example 2, dose 0.1 ppm) was 45% and the Emax at 0.25 ppm (Alternaria brassicae [1]; Alternaria brassicae, 336 h, Example 2, dose 0.25 ppm) was 53%. The Emax at 0.5 ppm (Alternaria brassicae [1]; Alternaria brassicae, 336 h, Example 2, dose 0.5 ppm) was 60%, the Emax at 1 ppm (Alternaria brassicae [1]; Alternaria brassicae, 336 h, Example 2, dose 1 ppm) was 65% and the Emax at 2.5 ppm (Alternaria brassicae [1]; Alternaria brassicae, 336 h, Example 2, dose 2.5 ppm) was 71%.
